From article PMC10458253, “Unraveling the In Vitro Toxicity Profile of Psychedelic 2C Phenethylamines and Their N-Benzylphenethylamine (NBOMe) Analogues” (Pharmaceuticals, 2023)

Tests used:
Assay type in all cases: cell-based
[1] = test system: differentiated SH-SY5Y cells; experiment: Intracellular total glutathione (DTNB-GSH recycling assay); conditions: 24 h
Experimental: Total GSH was quantified through the DTNB-GSH recycling assay. Briefly, GSH is oxidized by 5,5′-dithiobis (2-nitrobenzoic acid) (DTNB) producing 5-thio-2-nitrobenzoic acid (TNB) and a glutathione adduct of GSH (GS-TNB). In the presence of NADPH, GS-TNB is reduced by glutathione reductase to 2GSH (recycled). The GSH concentration in the samples is thus proportional to TNB formation, which is measurable at 415 nm.
Intracellular total glutathione (GSH) was measured through the DTNB-GSH recycling assay. […]
The acidic samples and standards (GSH standards prepared in 5% HClO4) were neutralized with ice-cold 0.76 M KHCO3 (1:1) and centrifuged (13,000× g, 10 min at 4 °C). Subsequently, 100 µL of the supernatants were transferred to a 96-well plate, followed by the addition of 65 µL of an extemporaneous reagent solution (3.96 mM DTNB and 0.68 mM NADPH prepared in a 7.5 pH phosphate buffer: 71.5 mM Na2HPO4, 71.5 mM NaH2PO4, and 0.63 mM EDTA) and the plates were incubated for 15 min in a multi-well plate reader (PowerWaveX BioTek Instruments, Winooski, VT, USA) at 30 °C. At the end of the incubation period, 40 µL of a 10 U/mL glutathione reductase (prepared in phosphate buffer) solution was added and the absorbance was then measured, for 3 min, at 415 nm, in kinetic mode to follow the TNB formation. […]

[2] = test system: differentiated SH-SY5Y cells; experiment: Intracellular ATP (luciferin-luciferase bioluminescence assay); conditions: 24 h, 500 μM
Experimental: Intracellular ATP levels were determined, as previously described, through a bioluminescence reaction with luciferase, which catalyzes the formation of light from ATP and luciferin.
Intracellular adenosine triphosphate (ATP) was quantified through the bioluminescent D-luciferin-luciferase assay. The samples used for the intracellular ATP quantification were prepared as described for the “Intracellular Total Glutathione Quantification” assay. The acidic samples and standards (ATP standards prepared in 5% HClO4) were neutralized with ice-cold 0.76 M KHCO3 (1:1) and centrifuged (13,000× g, 10 min at 4 °C). Afterwards, 75 µL of the supernatants were transferred to a white opaque 96-well plate, followed by the addition of 75 µL of luciferin-luciferase solution (0.15 mM luciferin and 3 × 10^6 light unit’s luciferase/mL prepared in a 7.6 pH Tris-Glycine buffer solution: 1 mM Trizma; 10 mM MgSO4; 50 mM glycine; 0.55 mM EDTA and 1% BSA), protected from light. The samples’ bioluminescence (560 nm) was immediately measured in a multi-well plate reader (PowerWaveX BioTek Instruments, Winooski, VT, USA). The ATP content in the samples was normalized to the protein content (as previously described in “Intracellular Reduced Glutathione Quantification”) and the results were expressed as a percentage of control cells. At least four independent experiments were performed, in duplicate.

[3] = test system: differentiated SH-SY5Y cells; experiment: Mitochondrial membrane potential (JC-1 dye); conditions: 24 h, 0–500 µM, vs control
Experimental: Mitochondrial transmembrane potential (Δѱm) was determined using the JC-1 dye, which can selectively enter the mitochondria and reversibly change the dye’s fluorescent properties depending on the Δѱm. At high Δѱm conditions—representative of healthy cells—JC-1 forms J-aggregates generating red fluorescence. At low Δѱm conditions—representative of unhealthy or apoptotic cells—JC-1 is predominantly a monomer generating green fluorescence.
The mitochondrial membrane potential was evaluated by using the JC-1 probe. SH-SY5Y cells were seeded and differentiated in 48-well plates and, 6 days after seeding, the cells were exposed to the six drugs (0–500 µM) for 24 h, at 37 °C, in a 5% CO2–95% air atmosphere. Subsequently, the medium was removed, and the cells were incubated with 20 µM JC-1 for 30 min, protected from light, at 37 °C, in a 5% CO2–95% air atmosphere. At the end of the incubation period, the cells were centrifuged (300× g, 5 min at room temperature) and washed (warm HBSS with calcium and magnesium) twice. The fluorescence was then measured in a multi-well plate reader: at 535 nm excitation and 595 nm emission wavelengths for J-aggregates; and at 485 nm excitation and 535 nm emission wavelengths for JC-1 monomers (PowerWaveX BioTek Instruments, USA). […] The results were calculated as red/green fluorescence intensity ratios and expressed as percentages of control cells. […]

| SMILES | total GSH intracellular levels ([1]; 250 μM) | ATP intracellular levels [2] | JC-1 red/green ratio (mitochondrial membrane potential) [3] | total GSH intracellular levels ([1]; 10 μM) |
| --- | --- | --- | --- | --- |
| COc1cc(CCN)c(OC)cc1Br [2C-B, 4-Bromo-2,5-dimethoxy-β-phenethylamine] | no significant alterations | – | – | – |
| COc1cc([N+](=O)[O-])c(OC)cc1CCN [2C-N, 2,5-dimethoxy-4-nitrophenethylamine] | – | about 60 % of control cells | – | – |
| COc1cc(CCNCc2ccccc2OC)c(OC)cc1Br [25B-NBOMe, 4-Bromo-2,5-dimethoxy-N-(2-methoxybenzyl)-β-phenethylamine] | – | completely depleted intracellular ATP levels | the most operative drug in inducing mitochondrial membrane depolarization | drastically reduced the total GSH levels |
